Assay results as given in US10526283B2, “Prodrugs of dithiol mucolytic agents” (PARION SCIENCES, INC., priority 2015, dated 2020).
Structures can show the parent of a compound that is named as a salt.

Columns and labels:
[1] = Pro-drug DTNB assay without enzyme (reducing activity); assay type: biochemical; settings: for reducing activity in DTNB assay without enzyme: no esterase added
Source text: (§1) This assay was designed to determine whether prodrug caps added on to our dithiol mucolytic compounds can be cleaved from the molecule. If so, the outcome would be an “active” compound that is able to reduce the S—S bond in DTNB. When cleaved the resulting compound, NTB (2-nitro-5-thiobenzoate), is a colored product that can be measured spectrophotometrically at an absorbance of 412 nm (Abs412). Using the molar extinction coefficient of NTB and measured maximum Abs412, the molar amount of DTNB that reacted with our mucolytic agents can be calculated. Dithiol mucolytic compounds react at a 2:1 stoichiometric ratio with DTNB (i.e. 2 molecules of NTB are produced for every one molecule of a dithiol compound that is oxidized). Dithiol prodrugs were mixed at a final concentration of 22.5 μM with excess DTNB (100 μM final) in 1 mL 50 mM Tris-HCl buffer (pH 7.5) and maximum Abs412 was measured. In the absence of a purified hydrolytic enzyme (e.g. porcine liver esterase; Sigma), the amount of DTNB cleavage observed is an indicator for stability of the cap on the prodrug compound (i.e. if the prodrug remains intact in solution the Abs412=0). Next, 5 uL of esterase (bought as an ammonium sulfate suspension that is subsequently centrifuged to isolate the esterase and then dissolved in reaction buffer prior to assaying) is combined with excess DTNB (100 μM final) and 22.5 μM pro-drug in 1 mL 50 mM Tris-HCl buffer (pH 7.5). Cleavage of the prodrug cap can be visualized in real time via DTNB cleavage at Abs412 by the esterase-liberated dithiol molecule.

[2] = tested on: esterase; experiment: Pro-drug DTNB assay after incubation with esterase; assay type: biochemical, porcine; settings: for dependence of activation on amount of esterase: varying amounts of esterase
Source text: as §1

[3] = target: T1, Muc5B (Homo sapiens, UniProt Q9HC84); experiment: MUC5B reduction in human mucus samples; assay type: biochemical
T1 construct: 68, 70a/b and 76 all reduce MUC5B in human mucus samples; from tissue; host or cells: human mucus samples
Source text: (§2) This assay tests whether mucin has been reduced by mucolytic compounds. Various mucin-containing substrates (e.g. saliva, primary human bronchial epithelial (HBEs) cell mucus (either on cultures or harvested), and sputum) treated with our dithiol mucolytic compounds are quenched upon completion of the treatment period with a 10-fold excess of N-ethylmaleimide in order to alkylate any remaining active compound and to prevent further mucin reduction. A 10× concentrated sample loading buffer is diluted into each sample (lx TAE/5% glycerol/0.1% SDS/Bromophenol Blue). Samples (50 μg) were analyzed by electrophoresis on 0.9% agarose gels using a buffer system consisting of 1×TAE/0.1% SDS. The agarose gel was soaked for 15 min in 4×SSC (0.6 M NaCl, 60 mM Tri-sodium citrate dehydrate) containing 10 mM DTT before transferring the samples from the gel onto a nitrocellulose membrane by vacuum blotter. Unreduced and reduced Muc5B and Muc5AC were visualized on a LiCor Odyssey imaging detection system using a polyclonal antibody directed towards Muc5B.

[4] = tested on: human bronchial epithelial cells (HBE); experiment: HBE ADME assay; assay type: in vitro ADME; settings: four hours post-dose
Method: This assay was designed to determine if our dithiol prodrug compounds would be retained on the apical surface of human bronchial epithelial cells (HBE) (i.e. they are predominately cell impermeant) and if the compounds could be metabolized to their active forms (i.e. are there relevant hydrolytic enzymes present). Towards this goal, 15 μL of 10 mM dithiol prodrug compound was added to the apical surface of HBEs. At indicated time points, mucus from the apical surface was isolated with a PBS wash that contained 10-fold excess of N-ethylmaleimide in order to alkylate any remaining active compound and to prevent further mucin reduction. In addition the HBE cells and basolateral media were isolated at each time point. The form (e.g., prodrug, active metabolite, oxidized metabolite) and location (apical, cellular, basolateral media) of each compound was analyzed by LC-MS.

[5] = Stability of capped and uncapped compounds tested with DTNB; assay type: physicochemical; settings: 4 days at room temperature; tested before and after incubation with esterase
Source text: This assay was designed to determine whether prodrug caps added on to our dithiol mucolytic compounds can be cleaved from the molecule. If so, the outcome would be an “active” compound that is able to reduce the S—S bond in DTNB. When cleaved the resulting compound, NTB (2-nitro-5-thiobenzoate), is a colored product that can be measured spectrophotometrically at an absorbance of 412 nm (Abs412). Using the molar extinction coefficient of NTB and measured maximum Abs412, the molar amount of DTNB that reacted with our mucolytic agents can be calculated. Dithiol mucolytic compounds react at a 2:1 stoichiometric ratio with DTNB (i.e. 2 molecules of NTB are produced for every one molecule of a dithiol compound that is oxidized). Dithiol prodrugs were mixed at a final concentration of 22.5 μM with excess DTNB (100 μM final) in 1 mL 50 mM Tris-HCl buffer (pH 7.5) and maximum Abs412 was measured. In the absence of a purified hydrolytic enzyme (e.g. porcine liver esterase; Sigma), the amount of DTNB cleavage observed is an indicator for stability of the cap on the prodrug compound (i.e. if the prodrug remains intact in solution the Abs412=0). […]

[6] = target: T2, Muc5AC (Homo sapiens, UniProt P98088); experiment: Western blot analysis of HBE mucus, Muc5AC; assay type: cell-based; settings: single treatment, 10 mM
T2 construct: endogenous in cells; host or cells: primary human bronchial epithelial (HBE) cultures
Source text: as §2

[7] = target: T1, Muc5B; experiment: Western blot analysis of HBE mucus, Muc5B; assay type: cell-based; settings: single treatment, 10 mM
Source text: as §2

[8] = tested on: human aminopeptidase; experiment: DTNB assay after incubation with human aminopeptidase; assay type: biochemical; settings: over an hour incubation, two concentrations of human aminopeptidase
[9] = Elimination of inhaled 14C-labeled NAC from the lungs in animal studies; assay type: in vivo; settings: inhaled or intranasal, administered by inhalation, animal studies (unpublished observation)

CC(=O)SCc1cc(OCCNC(=O)[C@@H](N)CCCCN)c(OCCNC(=O)[C@@H](N)CCCCN)cc1CSC(C)=O [Compound 11, S,S′-((4,5-bis(2-((S)-2,6-diaminohexanamido)ethoxy)-1,2-phenylene)bis(methylene)) diethanethioate hydrochloride]
reducing activity in DTNB assay without enzyme [1]: remained inactive
activation by esterase in DTNB assay ([2]; low and high concentration of esterase, approximately 15 min incubation): activated compound 11 to a similar level as compound 41

S-4-(2-(bis((2R,3R,4R,5R)-2,3,4,5,6-pentahydroxyhexyl)amino)ethoxy)-2-(mercaptomethyl)benzyl ethanethioate hydrochloride and S-5-(2-(bis((2R,3R,4R,5R)-2,3,4,5,6-pentahydroxyhexyl)amino)ethoxy)-2-(mercaptomethyl)benzyl ethanethioate hydrochloride [70a/b]
reduction of MUC5B in human mucus samples [3]: reduce MUC5B

CC(=O)SCc1ccc(OCCN(C[C@@H](O)[C@@H](O)[C@H](O)[C@H](O)CO)C[C@@H](O)[C@@H](O)[C@H](O)[C@H](O)CO)cc1CSC(C)=O [Compound 68, S,S′-((4-(2-(bis((2R,3R,4R,5R)-2,3,4,5,6-pentahydroxyhexyl)amino)ethoxy)-1,2-phenylene)bis(methylene)) diethanethioate hydrochloride]
reducing activity in DTNB assay without enzyme [1]: does not reduce the disulfide bonds
dependence of activation on amount of esterase [2]: concentration dependent increase in reaction rates
reduction of MUC5B in human mucus samples [3]: reduce MUC5B
metabolism and oxidation on the apical surface of HBE cultures [4]: substantially metabolized and oxidized
retention on the apical cell surface of HBE cultures [4]: substantially maintained on the apical cell surface

CC(=O)SCc1ccccc1CSC(C)=O [Compound 13, S,S′-(1,2-phenylenebis(methylene)) diethanethioate]
amount of esterase giving full activation ([2]; DTNB assay): ≥ 0.015 units
activation by esterase in DTNB assay ([2]; high concentration of esterase): fully activated immediately
activation by esterase in DTNB assay ([2]; low concentration of esterase, 15 min incubation): near fully activated
dependence of activation on amount of esterase [2]: Increasing amounts of esterase correlated with increasing activation

CC(=O)SCc1ccc(OCCN(C[C@H](O)[C@@H](O)[C@H](O)[C@H](O)CO)C[C@H](O)[C@@H](O)[C@H](O)[C@H](O)CO)cc1CSC(C)=O [Compound 23, S,S′-((4-(2-(bis((2S,3R,4R,5R)-2,3,4,5,6-pentahydroxyhexyl)amino)ethoxy)-1,2-phenylene)bis(methylene)) diethanethioate]
dependence of activation on amount of esterase [2]: Increasing amounts of esterase increased activation
stability against oxidation tested with DTNB [5]: prevents some but not all oxidation
reduction of Muc5AC on the apical surface of HBE cultures [6]: reduced
reduction of Muc5B on the apical surface of HBE cultures [7]: reduced

NCCCC[C@H](N)C(=O)SCc1ccccc1CSC(=O)[C@@H](N)CCCCN [Compound 35, (2S,2′S)—S,S′-(1,2-phenylenebis(methylene)) bis(2,6-diaminohexanethioate)HCl salt]
activation by aminopeptidase in DTNB assay [8]: does not completely activate the compound

Cl.OC[C@@H](O)[C@@H](O)[C@H](O)[C@H](O)CN(CCOc1ccc(CS)c(CS)c1)C[C@@H](O)[C@@H](O)[C@H](O)[C@H](O)CO [Compound 76, (2R,2′R,3R,3′R,4R,4′R,5R,5′R)-6,6′-((2-(3,4-bis(mercaptomethyl)phenoxy)ethyl)azanediyl)bis(hexane-1,2,3,4,5-pentaol) hydrochloride]
time to fully reduce all available disulfides ([1]; no enzyme): < 10 s
reduction of MUC5B in human mucus samples [3]: reduce MUC5B

CC(=O)N[C@@H](CS)C(=O)O [NAC, N-acetyl cysteine]
half-life [9]: ~20 min
